According to patent US6054435A, “6-O-substituted macrolides having antibacterial activity” (priority 1999, dated 2000):
Converted amounts (≈) assume the structure as drawn.

Assays:
Experiment in all cases: in vitro antibacterial activity (MIC), agar dilution
Format in all cases: cell-based
[1] = tested on: Nocardia Asteroides ATCC9970; conditions: organism code VV; BHI agar, 35-37° C., 20 to 24 hours; unit assumed
Outline: (§1)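 Antibacterial MIC determined by agar dilution in BHI agar with twelve successive concentrations; controls comprised compound-free plates and a same-class reference antibiotic. MIC: lowest concentration giving no growth, slight haze or sparsely isolated colonies.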

[2] = tested on: Streptococcus Pneumonia 5979; conditions: organism code ZZ; BHI agar, 35-37° C., 20 to 24 hours; unit assumed
Outline: as §1

[3] = tested on: Staphylococcus aureus CMX 642A; conditions: organism code DD; BHI agar, 35-37° C., 20 to 24 hours; unit assumed
Outline: as §1

[4] = tested on: Mycobacterium smegmatis ATCC 114; conditions: organism code UU; BHI agar, 35-37° C., 20 to 24 hours; unit assumed
Outline: as §1

[5] = tested on: Micrococcus luteus ATCC 9341; conditions: organism code OO; BHI agar, 35-37° C., 20 to 24 hours; unit assumed
Outline: (§2)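 BHI agar incorporation method; twelve compound concentrations. Streptococcus and other slow growers inoculated at 1:10, other strains at 1:100. Visual MIC read-out versus growth control.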

[6] = tested on: Haemophilis Influenzae DILL AMP R; conditions: organism code WW; BHI agar, 35-37° C., 20 to 24 hours; unit assumed
Outline: as §1

[7] = tested on: Streptococcus pyogenes 930; conditions: organism code MM; BHI agar, 35-37° C., 20 to 24 hours; unit assumed
Outline: as §1

Escherichia coli SS = conditions: organism code RR; BHI agar, 35-37° C., 20 to 24 hours; unit assumed
Outline: as §1

[8] = tested on: Streptococcus bovis A-5169; conditions: organism code JJ; BHI agar, 35-37° C., 20 to 24 hours; unit assumed
Outline: as §1

[9] = tested on: Staphylococcus aureus ATCC 6538P; conditions: organism code AA; BHI agar, 35-37° C., 20 to 24 hours; unit assumed
Outline: as §1

[10] = tested on: Micrococcus luteus ATCC 4698; conditions: organism code PP; BHI agar, 35-37° C., 20 to 24 hours; unit assumed
Outline: as §2

[11] = tested on: Streptococcus agalactiae CMX 508; conditions: organism code KK; BHI agar, 35-37° C., 20 to 24 hours; unit assumed
Outline: as §1

Candida albicans CCH 442 = conditions: organism code TT; BHI agar, 35-37° C., 20 to 24 hours; unit assumed
Outline: as §1

[12] = tested on: Staphylococcus aureus 1775; conditions: organism code GG; BHI agar, 35-37° C., 20 to 24 hours; unit assumed
Outline: as §1

[13] = tested on: Staphylococcus aureus A-5278; conditions: organism code CC; BHI agar, 35-37° C., 20 to 24 hours; unit assumed
Outline: as §1

[14] = tested on: Streptococcus Pneumonia 5649; conditions: organism code ZZA; BHI agar, 35-37° C., 20 to 24 hours; unit assumed
Outline: as §1

[15] = tested on: Staphylococcus aureus NCTC10649M; conditions: organism code EE; BHI agar, 35-37° C., 20 to 24 hours; unit assumed
Outline: as §1

[16] = tested on: Streptococcus Pneumonia GYR 1171; conditions: organism code YY; BHI agar, 35-37° C., 20 to 24 hours; unit assumed
Outline: as §1

[17] = tested on: Enterococcus faecium ATCC 8043; conditions: organism code II; BHI agar, 35-37° C., 20 to 24 hours; unit assumed
Outline: as §1

Escherichia coli DC-2 = conditions: organism code SS; BHI agar, 35-37° C., 20 to 24 hours; unit assumed
Outline: as §1

[18] = tested on: Streptococcus pyogenes EES61; conditions: organism code LL; BHI agar, 35-37° C., 20 to 24 hours; unit assumed
Outline: as §1

[19] = tested on: Streptococcus pyogenes PIU 2548; conditions: organism code NN; BHI agar, 35-37° C., 20 to 24 hours; unit assumed
Outline: as §1

[20] = tested on: Staphylococcus epidermidis 3519; conditions: organism code HH; BHI agar, 35-37° C., 20 to 24 hours; unit assumed
Outline: as §1

[21] = tested on: Streptococcus Pneumonia ATCC6303; conditions: organism code XX; BHI agar, 35-37° C., 20 to 24 hours; unit assumed
Outline: as §1

[22] = tested on: Staphylococcus aureus CMX 553; conditions: organism code FF; BHI agar, 35-37° C., 20 to 24 hours; unit assumed
Outline: as §1

Escherichia coli JUHL = conditions: organism code QQ; BHI agar, 35-37° C., 20 to 24 hours; unit assumed
Outline: as §1

[23] = tested on: Staphylococcus aureus A5177; conditions: organism code BB; BHI agar, 35-37° C., 20 to 24 hours; unit assumed
Outline: as §1

Structure (SMILES) | MIC [1] [µg/mL] | MIC [2] [µg/mL] | MIC [3] [µg/mL] | MIC [4] [µg/mL] | MIC [5] [µg/mL] | MIC [6] [µg/mL] | MIC [7] [µg/mL] | MIC (Escherichia coli SS) [µg/mL] | MIC [8] [µg/mL] | MIC [9] [µg/mL] | MIC [10] [µg/mL] | MIC [11] [µg/mL] | MIC (Candida albicans CCH 442) [µg/mL] | MIC [12] [µg/mL] | MIC [13] [µg/mL] | MIC [14] [µg/mL] | MIC [15] [µg/mL] | MIC [16] [µg/mL] | MIC [17] [µg/mL] | MIC (Escherichia coli DC-2) [µg/mL] | also measured
CC[C@H]1OC(=O)[C@H](C)C(=O)[C@H](C)[C@@H](O[C@@H]2O[C@H](C)C[C@H](N(C)C)[C@H]2O)[C@](C)(OC/C=C/c2ccc(-c3cnccn3)s2)C[C@@H](C)C(=O)[C@H](C)[C@H]2NC(=O)O[C@@]21C [Example 62] | ≤ 0.005 | 2 (≈ 2.5 µM) | 0.05 (≈ 0.0626 µM) | 0.78 (≈ 0.976 µM) | ≤ 0.005 | 2 (≈ 2.5 µM) | 3.1 (≈ 3.88 µM) | 0.2 (≈ 0.25 µM) | ≤ 0.005 | 0.05 (≈ 0.0626 µM) | 0.05 (≈ 0.0626 µM) | ≤ 0.005 | > 100 | > 100 | > 100 | 0.03 (≈ 0.0375 µM) | 0.02 (≈ 0.025 µM) | ≤ 0.004 | 0.02 (≈ 0.025 µM) | 25 (≈ 31.3 µM) | MIC [18]: ≤ 0.005 µg/mL; MIC [19]: 0.1 µg/mL (≈ 0.125 µM); MIC [20]: 0.05 µg/mL (≈ 0.0626 µM); MIC [21]: ≤ 0.004 µg/mL; MIC [22]: 0.02 µg/mL (≈ 0.025 µM); MIC (Escherichia coli JUHL): 50 µg/mL (≈ 62.6 µM); MIC [23]: 0.05 µg/mL (≈ 0.0626 µM)
CC[C@H]1OC(=O)[C@H](C)C(=O)[C@H](C)[C@@H](O[C@@H]2O[C@H](C)C[C@H](N(C)C)[C@H]2O)[C@](C)(OC/C=C/c2ccc(-c3nccs3)s2)C[C@@H](C)C(=O)[C@H](C)[C@H]2NC(=O)O[C@@]21C [Example 63] | 0.05 (≈ 0.0622 µM) | 8 (≈ 9.95 µM) | 0.1 (≈ 0.124 µM) | 0.39 (≈ 0.485 µM) | 0.05 (≈ 0.0622 µM) | 4 (≈ 4.97 µM) | 6.2 (≈ 7.71 µM) | 0.1 (≈ 0.124 µM) | 0.05 (≈ 0.0622 µM) | 0.1 (≈ 0.124 µM) | 0.1 (≈ 0.124 µM) | 0.05 (≈ 0.0622 µM) | > 100 | > 100 | > 100 | 0.25 (≈ 0.311 µM) | 0.1 (≈ 0.124 µM) | 0.008 (≈ 0.00995 µM) | 0.05 (≈ 0.0622 µM) | 100 (≈ 124 µM) | MIC [18]: 0.05 µg/mL (≈ 0.0622 µM); MIC [19]: 0.2 µg/mL (≈ 0.249 µM); MIC [20]: 0.2 µg/mL (≈ 0.249 µM); MIC [21]: 0.008 µg/mL (≈ 0.00995 µM); MIC [22]: 0.1 µg/mL (≈ 0.124 µM); MIC (Escherichia coli JUHL): 100 µg/mL (≈ 124 µM); MIC [23]: 0.1 µg/mL (≈ 0.124 µM)
CC[C@H]1OC(=O)[C@H](C)C(=O)[C@H](C)[C@@H](O[C@@H]2O[C@H](C)C[C@H](N(C)C)[C@H]2O)[C@](C)(OC/C=C/c2nc(-c3cccnc3)cs2)C[C@@H](C)C(=O)[C@H](C)[C@H]2NC(=O)O[C@@]21C [Example 65] | 0.02 (≈ 0.025 µM) | > 128 | 0.1 (≈ 0.125 µM) | 0.78 (≈ 0.976 µM) | 0.02 (≈ 0.025 µM) | 2 (≈ 2.5 µM) | 50 (≈ 62.6 µM) | 0.2 (≈ 0.25 µM) | ≤ 0.005 | 0.1 (≈ 0.125 µM) | 0.1 (≈ 0.125 µM) | 0.01 (≈ 0.0125 µM) | > 100 | > 100 | > 100 | 0.25 (≈ 0.313 µM) | 0.1 (≈ 0.125 µM) | ≤ 0.004 | 0.02 (≈ 0.025 µM) | 25 (≈ 31.3 µM) | MIC [18]: 0.01 µg/mL (≈ 0.0125 µM); MIC [19]: 0.1 µg/mL (≈ 0.125 µM); MIC [20]: 0.1 µg/mL (≈ 0.125 µM); MIC [21]: 0.008 µg/mL (≈ 0.01 µM); MIC [22]: 0.1 µg/mL (≈ 0.125 µM); MIC (Escherichia coli JUHL): 100 µg/mL (≈ 125 µM); MIC [23]: 0.1 µg/mL (≈ 0.125 µM)
CC[C@H]1OC(=O)[C@H](C)C(=O)[C@H](C)[C@@H](O[C@@H]2O[C@H](C)C[C@H](N(C)C)[C@H]2O)[C@](C)(OC/C=C/c2nc(-c3cccs3)cs2)C[C@@H](C)C(=O)[C@H](C)[C@H]2NC(=O)O[C@@]21C [Example 67] | 0.1 (≈ 0.124 µM) | 32 (≈ 39.8 µM) | 0.1 (≈ 0.124 µM) | 0.39 (≈ 0.485 µM) | 0.02 (≈ 0.0249 µM) | 8 (≈ 9.95 µM) | 12.5 (≈ 15.5 µM) | 0.78 (≈ 0.97 µM) | 0.01 (≈ 0.0124 µM) | 0.1 (≈ 0.124 µM) | 0.1 (≈ 0.124 µM) | 0.01 (≈ 0.0124 µM) | > 100 | > 100 | > 100 | 0.25 (≈ 0.311 µM) | 0.1 (≈ 0.124 µM) | 0.03 (≈ 0.0373 µM) | 0.05 (≈ 0.0622 µM) | > 100 | MIC [18]: 0.01 µg/mL (≈ 0.0124 µM); MIC [19]: 0.1 µg/mL (≈ 0.124 µM); MIC [20]: 0.1 µg/mL (≈ 0.124 µM); MIC [21]: 0.03 µg/mL (≈ 0.0373 µM); MIC [22]: 0.1 µg/mL (≈ 0.124 µM); MIC (Escherichia coli JUHL): > 100 µg/mL; MIC [23]: 0.1 µg/mL (≈ 0.124 µM)
CC[C@H]1OC(=O)[C@H](C)C(=O)[C@H](C)[C@@H](O[C@@H]2O[C@H](C)C[C@H](N(C)C)[C@H]2O)[C@](C)(OC/C=C/c2ccc(-c3cccnc3)s2)C[C@@H](C)C(=O)[C@H](C)[C@H]2NC(=O)O[C@@]21C [Example 68] | 0.05 (≈ 0.0627 µM) | 0.125 (≈ 0.157 µM) | 0.39 (≈ 0.489 µM) | 3.1 (≈ 3.88 µM) | 0.02 (≈ 0.0251 µM) | 2 (≈ 2.51 µM) | > 100 | 0.39 (≈ 0.489 µM) | 0.02 (≈ 0.0251 µM) | 0.2 (≈ 0.251 µM) | 0.39 (≈ 0.489 µM) | 0.02 (≈ 0.0251 µM) | > 100 | > 100 | > 100 | 0.125 (≈ 0.157 µM) | 0.39 (≈ 0.489 µM) | ≤ 0.004 | 0.05 (≈ 0.0627 µM) | > 100 | MIC [18]: 0.05 µg/mL (≈ 0.0627 µM); MIC [19]: 6.2 µg/mL (≈ 7.77 µM); MIC [20]: 0.39 µg/mL (≈ 0.489 µM); MIC [21]: ≤ 0.004 µg/mL; MIC [22]: 0.39 µg/mL (≈ 0.489 µM); MIC (Escherichia coli JUHL): 100 µg/mL (≈ 125 µM); MIC [23]: 6.2 µg/mL (≈ 7.77 µM)
